Assay results taken from patent US20080286393A1, “Method for the enrichment of the polyphenolic contents from unripe fruit rinds of Terminalia belerica and uses thereof” (priority 2007, published 2008).

How the values were obtained:
[1] = Anti-oxidant activity: DPPH scavenging; conditions: FIG. 5
Method: (§1) The antioxidant activity of the light-colored, enriched/concentrated (85%-100%) polyphenolic extract from the dried, unripe fruit rinds of Terminalia belerica was assayed by diphenylpicrylhydrazyl (DPPH), Oxygen Radical Absorption (or Absorbance) Capacity (ORAC) and the hydroxyl radical Absorption (or Absorbance) capacity (HORAC) studies, as per the validated procedures documented in Cosmetics and toiletries. Cosmeceuticals: Jang D I, Lee B J, Jeon C O, Jo N S, Park J H, Cho S Y, Lee H, Koh J S. 1998, J. Agric. Food Chem. (2001), 49, 4619-4626 and J. Agric. Food. Chem. (2002), 50, 2772-2777.)

[2] = Oxygen Radical Absorption (or Absorbance) Capacity (ORAC); conditions: FIG. 6
Method: as §1, with “[…] The ORAC value of the light-colored, enriched/concentrated (85%-100%) polyphenolic extract from the dried, unripe fruit rinds of Terminalia belerica was 6237±640 μMol trolox equivalents/gram while the ORAC value of Vitamin C was 3400 μMol trolox equivalents/gram and that of grape seed extract was 4528 μMol trolox equivalents/gram.” for “Chem. (2002), 50, 2772-2777.)”

SMILES: Cc1cc(C(C)(C)C)c(O)c(C(C)(C)C)c1 [BHT, Butylated hydroxyl toluene]
- SC50 scavenging activity [1]: 4.6 µg/mL

SMILES: O=C1O[C@H]([C@@H](O)CO)C(O)=C1O [Vitamin C]
- ORAC value [2]: 3400 μMol trolox equivalents/gram
- SC50 scavenging activity [1]: 1.9 µg/mL
